Test results as given in the supplement of paper PMC3974653.
Structures can show the parent of a compound that is named as a salt.

system: MTT (mouse pheochromocytoma); test: IC50 of cell viability (ATP content); conditions: (24 or 48 h)
Method in brief: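 After overnight culture at 37°C, 5% CO2 in white 1536-well plates, MTT mouse pheochromocytoma cells were given 23 nl of library compound in DMSO by pintool across 8 concentrations, spanning final 0.5 nM to 46 µM. Following 24 or 48 hrs, CellTiter-Glo luminescence was read after 15 minutes and normalised against positive-control (100%) and DMSO (0%) wells. A four-parameter logistic model provided the IC50.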

| SMILES | IC50 of cell viability [µM] |
| --- | --- |
| C=C(Nc1ccc(OCC)cc1)Nc1ccc(OCC)cc1 [PHENACAINE HYDROCHLORIDE] | > 46 |
| NC(=O)NC(=O)Cc1ccccc1 [PHENACEMIDE] | > 46 |
| NC(=O)NNc1ccccc1 [PHENICARBAZIDUM] | > 46 |
| O=C(O)C(Cc1cc(I)c(O)c(I)c1)c1ccccc1 (stereo not given) [PHENIODOLUM NATRICUM] | > 46 |
| O=S(=O)([O-])c1ccc(O)cc1 [PHENOLSULFONIC ACID] | > 46 |
| CC(C)=CC1C(C(=O)OCc2cccc(Oc3ccccc3)c2)C1(C)C (stereo not given) [PHENOTHRIN] | > 46 |
| CC1=CC=C(C=C1)N(C\C2=N\CCN2)C3=CC=CC(=C3)O [PHENTOLAMINE] | > 46 |
| CCCCC1C(=O)N(c2ccccc2)N(c2ccccc2)C1=O [PHENYLBUTAZONE] | > 46 |
| NNc1ccccc1 [PHENYLHYDRAZINE HYDROCHLORIDE] | > 46 |
| CCC(O)c1ccccc1 (stereo not given) [PHENYLPROPANOL] | > 46 |
| CN(C)CCOc1ccccc1Cc1ccccc1 [PHENYLTOLOXAMINE CITRATE] | > 46 |
| O=C1NC(=O)C(c2ccccc2)(c2ccccc2)N1 [PHENYTOIN] | > 46 |
| Oc1cc(O)cc(O)c1 [PHLOROGLUCINOL] | > 46 |
| CCN(CC)C(=O)/C(Cl)=C(\C)OP(=O)(OC)OC [PHOSPHAMIDON] | > 46 |
| O=C(O)c1ccccc1C(=O)Nc1ccc([S+](=O)([O-])Nc2nccs2)cc1 [PHTHALYLSULFATHIAZOLE] | > 46 |
| CCCCCCCCCCCCCCCC(=O)O[C@@H]1CC(C)=C(\C=C/C(C)=C\C=C/C(C)=C\C=C\C=C(C)\C=C\C=C(C)\C=C\C2=C(C)C[C@@H](OC(=O)CCCCCCCCCCCCCCC)CC2(C)C)C(C)(C)C1 [PHYSALIEN with TLC] | > 46 |
| CNC(=O)Oc1ccc2c(c1)[C@]1(C)CCN(C)[C@@H]1N2C [PHYSOSTIGMINE] | > 46 |
| Nc1c(NC/C=C\COc2cc(CN3CCCCC3)ccn2)c(=O)c1=O [PIBUTIDINE HYDROCHLORIDE] | > 46 |
| Cc1ccccn1 [PICOLINE, ALPHA] | > 46 |
| CC(C)(O)C1C2OC(=O)C1C1(O)CC3OC34C(=O)OC2C14C (stereo not given) [PICROTOXIN] | > 46 |
| Clc1ccccc1-c1nc(-c2ccncc2)no1 [PIFEXOLUM] | > 46 |
| CC[C@@H]1C(=O)OC[C@@H]1Cc1cncn1C [PILOCARPINE] | > 46 |
| Cc1cccc(C)c1NC(=O)CC12CCCN1CCC2 [PILSICAINIDE HYDROCHLORIDE] | > 46 |
| CC[C@@H]1/C=C(\C)C[C@H](C)C[C@H](OC)[C@H]2O[C@@](O)(C(=O)C(=O)N3CCCC[C@H]3C(=O)O[C@H](/C(C)=C/[C@@H]3CC[C@H](Cl)[C@H](OC)C3)[C@H](C)[C@@H](O)CC1=O)[C@H](C)C[C@@H]2OC [PIMECROLIMUS] | > 46 |
| COc1ccc(-c2nc3ccc(C4=C(C)CC(=O)NN4)cc3[nH]2)cc1 [PIMOBENDAN] | > 46 |

| SMILES | IC50 of cell viability [µM] |
| --- | --- |
| CC(N/C(=N\C#N)Nc1ccncc1)C(C)(C)C (stereo not given) [PINACIDIL] | > 46 |
| Cc1cccc(C)c1NC(=O)CN1CCCCCC1 [PINCAINIDUM] | > 46 |
| CC(C)NCC(O)COc1cccc2[nH]ccc12 (stereo not given) [PINDOLOL] | > 46 |
| CCc1ccc(CCOc2ccc(CC3SC(=O)NC3=O)cc2)nc1.Cl (stereo not given) [PIOGLITAZONE HYDROCHLORIDE] | > 46 |
| NC(=O)C1(N2CCCCC2)CCN(CCCC(=O)c2ccc(F)cc2)CC1 [PIPAMPERONE HYDROCHLORIDE] | > 46 |
| CC[N+]1(C)CCCC(OC(=O)C(O)(c2ccccc2)c2ccccc2)C1.[Br-] (stereo not given) [PIPENZOLATE BROMIDE] | > 46 |
| S=C(S)N1CCNCC1 [PIPERAZINE-CARBON DISULFIDE COMPLEX] | > 46 |
| CC1CCCCN1CCCOC(=O)c1ccccc1 (stereo not given) [PIPEROCAINE HYDROCHLORIDE] | > 46 |
| c1ccc2c(c1)OCC(CN1CCCCC1)O2 (stereo not given) [PIPEROXANUM] | > 46 |
| O=C(OCCN1CCCCC1)C(O)(c1ccccc1)c1ccccc1 [PIPETHANATE HYDROCHLORIDE] | > 46 |
| O=C(CCBr)N1CCN(C(=O)CCBr)CC1 [PIPOBROMAN] | > 46 |
| O=C([O-])c1cc(O)c2c3nc4ccccc4oc-3cc(=O)c2n1 [PIRENOXINE] | > 46 |
| CC/1=C(CCN2CCC(CC2)C(=O)C3=CC=C(F)C=C3)/C(=O)N4\C=C/C=C\C4=N1 [PIRENPERONE] | > 46 |
| CN1CCN(CC(=O)N2c3ccccc3C(=O)Nc3cccnc32)CC1 [PIRENZEPINE] | > 46 |
| c1cnc(N2CCN(Cc3ccc4c(c3)OCO4)CC2)nc1 [PIRIBEDIL] | > 46 |
| CN1CC\C(CC1)=C2\C3=C(CCC4=CC=CC=C24)SC=C3 [PIZOTIFEN] | > 46 |
| CCC(C)CCCCC(=O)NC(CCN)C(=O)NC(C(=O)NC(CCN)C(=O)NC1CCNC(=O)C(C(C)O)NC(=O)C(CCN)NC(=O)C(CCN)NC(=O)C(CC(C)C)NC(=O)C(Cc2ccccc2)NC(=O)C(CCN)NC1=O)C(C)O.O=[S+]([O-])(O)O (stereo not given) [POLYMYXIN B SULFATE] | > 46 |
| O=P([O-])([O-])OC[C@@H](O)CO [POTASSIUM GLYCEROPHOSPHATE] | > 46 |
| CCCCCCC(O)C/C=C/CCCCCCCC(=O)O (stereo not given) [POTASSIUM RICINOLEATE] | > 46 |
| CCCCCC[C@@H](O)C/C=C\CCCCCCCC(=O)O [POTASSIUM RICINOLEATE] | > 46 |
| CC(=O)Nc1ccc(OCC(O)CNC(C)C)cc1 (stereo not given) [PRACTOLOL] | > 46 |
| CCCN[C@H]1CCc2nc(N)sc2C1 [PRAMIPEXOLE DIHYDROCHLORIDE] | > 46 |
| CC(C)[N+](C)(C)CC(O)COc1cccc2ccccc12 (stereo not given) [PRANOLII CHLORIDUM] | > 46 |
| CC(C(=O)O)c1ccc2c(c1)Cc1cccnc1O2 (stereo not given) [PRANOPROFEN] | > 46 |
| N=C(N)n1cccn1 [PRAXADINUM] | > 46 |

| SMILES | IC50 of cell viability [µM] |
| --- | --- |
| ClC1=CC=C2N(CC3CC3)C(=O)C\N=C(\C4=CC=CC=C4)C2=C1 [PRAZEPAM] | > 46 |
| CC(=O)OCC(=O)[C@@]1(O)CCC2C3CCC/4=C/C(=O)/C=C\C4(C)C3C(O)C[C@@]12C (stereo not given in full) [PREDNISOLONE ACETATE] | > 46 |
| C[C@@]12CC(O)C3C(CCC/4=C/C(=O)/C=C\[C@]34C)C1CC[C@]2(O)C(=O)CO (stereo not given in full) [PREDNISOLONE] | > 46 |
| CC(C)CC(CN)CC(=O)O (stereo not given) [PREGABALIN] | > 46 |
| CC[N+]1(CC)CCC(=C(c2ccccc2)c2ccccc2)C1C (stereo not given) [PRIFINIUM BROMIDE] | > 46 |
| CCC1(c2ccccc2)C(=O)NCNC1=O [PRIMIDONE] | > 46 |
| CCCC(C(=O)OCCN(CC)CC)(c1ccccc1)c1ccccc1.Cl [PROADIFEN HYDROCHLORIDE] | > 46 |
| CCN(CC)CCNC(=O)c1ccc(N)cc1 [PROCAINAMIDE] | > 46 |
| CC[C@H](NC(C)C)[C@H](O)C1=CC=C(O)C2=C1\C=C/C(=O)N2 [PROCATEROL] | > 46 |
| O=C(O)CCc1nc2ccccc2[nH]1 [PROCODAZOLUM] | > 46 |
| CC(CN1c2ccccc2Sc2ccccc21)N(C)C (stereo not given) [PROMETHAZINE] | > 46 |
| CC(C)NCC(O)c1ccc2ccccc2c1 (stereo not given) [PRONETHALOL] | > 46 |
| CC(C)[N+](C)(CCOC(=O)C1c2ccccc2Oc2ccccc21)C(C)C.[Br-] [PROPANTHELINE BROMIDE] | > 46 |
| CCCn1cnc2c1c(=O)n(CCCCC(C)=O)c(=O)n2C [PROPENTOFYLLINE] | > 46 |
| CCCOC(C(=O)OC1CCN(C)CC1)(c1ccccc1)c1ccccc1 [PROPIVERINE HYDROCHLORIDE] | > 46 |
| CC(C)c1cccc(C(C)C)c1O [PROPOFOL] | > 46 |
| CCCOC(=O)c1ccccc1 [PROPYL BENZOATE] | > 46 |
| CCCOC(=O)c1ccccc1O [PROPYL SALICYLATE] | > 46 |
| CCCCCCCCCCCCCCCCCC(=O)OCC(C)O (stereo not given) [PROPYLENE GLYCOL STEARATE SE] | > 46 |
| CCCc1cc(C(N)=S)ccn1 [PROTHIONAMIDE] | > 46 |
| NC(=O)[C@@H]1CCCN1C(=O)[C@H](Cc1cnc[nH]1)NC(=O)[C@@H]1CCC(=O)N1 [PROTIRELIN] | > 46 |
| C=CC1=C(C)c2cc3[nH]c(cc4nc(cc5[nH]c(cc1n2)c(C)c5CCC(=O)[O-])C(CCC(=O)[O-])=C4C)c(C)c3C=C [PROTOPORPHYRIN DISODIUM] | > 46 |
| O=C(O)c1cccc(-c2noc(-c3ccccc3F)n2)c1 [PTC 124] | > 46 |
| c1cc2ccc3cccc4ccc(c1)c2c34 [PYRENE] | > 46 |
| C=C/C=C/CC1=C(C)[C@@H](OC(=O)[C@@H]2[C@@H](/C=C(\C)C(=O)OC)C2(C)C)CC1=O.C=C/C=C/CC1=C(C)[C@@H](OC(=O)[C@@H]2[C@@H](C=C(C)C)C2(C)C)CC1=O [PYRETHRINS/Pestanal] | > 46 |
